The values that follow come from patent publication US20220000887A1, “REPURPOSED ANTIBIOTICS FOR NON-NUCLEAR GENOTOXIC CHEMOTHERAPY AND PHARMACEUTICAL COMPOSITION FOR ANTI-CANCER CONTAINING THE SAME” (Korea University Research and Business Foundation, priority 2019, published 2022).

Data set [1] relates to DU145 (prostate cancer cells). The data set is described as follows: Cell viability analysis (LDH assay), DU145. In kind it is cell-based, human. Particulars: FIG. 3. As to the method: (§1) Particularly, the inventive anticancer drugs had IC50 values of 23.77 μM and 27.05 μM against A549 and SW620, respectively.
Data set [2] relates to MDA-MB-231 metastatic breast cancer cells. As to the kind of experiment: Cell viability analysis (LDH assay), MDA-MB-231. To be noted: for apoptotic effect on MDA-MB-231 cells: 48 h treatment.
In data set [3] the test system is A549 (lung cancer cells). As to the kind of experiment: Cell viability analysis (LDH assay), A549. In kind it is cell-based, human. To be noted: FIG. 3. As to the method: as §1
Data set [4] concerns PC3 (prostate cancer cells). The data set is described as follows: Cell viability analysis (LDH assay), PC3. Particulars: FIG. 3. In kind it is cell-based, human. As to the method: as §1
Data set [5] has as its system SW620 (colon cancer cells). As to the kind of experiment: Cell viability analysis (LDH assay), SW620. Particulars: FIG. 3. In kind it is cell-based, human. As to the method: as §1
Data set [6] relates to mitochondrial genomic DNA. The data set is described as follows: Taq1 assay for damage to mitochondrial genomic DNA (FIG. 10). In kind it is cell-based.
Data set [7] has as its system MDA-MB-231 cells. As to the kind of experiment: Mitochondrial membrane potential measurement (JC-1 assay). Particulars: 10 μM, 0, 6, 12, 24 h, FIG. 7. In kind it is cell-based, human. As to the method:
Mitochondrial membrane potential differences were measured. To this end, the MDA-MB-231 cells were treated with 10 μM Ester MT-CFX for different periods of time (0, 6, 12, and 24 h) and cultured for indicated periods of time. Cells were harvested, washed once with ice-cold PBS, and cultured with […] 5,5′,6,6′-tetrachloro-1,1′,3,3′-tetraethyl-benzimidazolyl carbocyanine chloride (JC-1) at 37° C. for 20 min. The JC-1 stained cells were centrifuged at 1,300 g for 3 min and washed twice with ice-cold PBS. Mitochondrial membrane potentials of JC-1 monomer (green channel) and aggregate (red channel) were measured in different wavelength bands.

Data set [8] concerns nuclear DNA and mitochondrial DNA. As to the kind of experiment: Damage to nuclear DNA and mitochondrial DNA (FIG. 8).
Excerpt: (§2) RNA was extracted from each sample using TRIzol solution. cDNA synthesized from the isolated RNA or intracellular genomic DNA extracted using a genomic DNA isolation kit was used for real-time polymerase chain reaction (PCR).
(§3) The real-time PCR data were normalized by the expression of glyceraldehyde-3-phosphate dehydrogenase (GAPDH). Relative expression levels were expressed as fold changes over the control. The results (mean±SE) were obtained in triplicate and a p value <0.05 was taken to be statistically significant.
For data set [9] the test system is unchanged.
Excerpt: as §2, §3
Data set [10] relates to nuclear and mitochondrial DNA. As to the kind of experiment: Real-time PCR for nuclear and mitochondrial DNA damage lesions (FIG. 11). In kind it is cell-based. (In general: Real-time PCR tracks product formation cycle by cycle.)
Excerpt: as §2, §3
Data set [11] has as its system MDA-MB-231 cells. The data set is described as follows: Reactive oxidative species (ROS) measurement (Amplex Red, CM-H2DCFDA). In kind it is cell-based, human. To be noted: 10 μM, 48 h, FIG. 4. As to the method: The activity of hydrogen peroxide (H2O2) produced in cells was evaluated by detection with Amplex® Red reagent (10-acetyl-3,7-dihydroxyphenoxazine; Thermo Fisher scientific). Here, Amplex® Red reagent reacts with H2O2 in a stoichiometric ratio of 1:1 in the presence of peroxidase in cells to produce resorufin as a red fluorescent product. The fluorescence of resorufin can be analyzed at excitation and emission wavelengths of 571 nm and 581 nm, respectively. The MDA-MB-231 cell line was seeded into a 96-well plate and treated with 10 μM Ester MT-CFX for 48 h. Thereafter, the amount of hydrogen peroxide was measured. A reaction mixture of 50 μM Amplex® Red reagent and 0.1 U/mL HRP was prepared in Krebs-Ringer phosphate buffer (145 mM NaCl, 5.7 mM sodium phosphate, 4.86 mM KCl, 0.54 mM CaCl2, 1.22 mM MgSO4, 5.5 mM glucose, pH 7.35). 100 μL of the reaction mixture was added to each plate well, followed by incubation at 37° C. for 10 min. The brightness of fluorescence was measured at 530-560 nm excitation and 590 nm emission wavelengths using a microplate reader. The MDA-MB-231 cell line was seeded into a confocal dish. […] The fluorescence of reactive oxygen species produced in cells was imaged by confocal laser scanning microscopy at 492-495 nm excitation and 517-527 nm emission wavelengths.

For data set [12], the system named is MDA-MB-231 xenograft. The data set is described as follows: In vivo mouse xenograft model. To be noted: intravenous three times a week, 12 weeks, BALB/c-nu-nu mice.
Description: Five-week-old immunodeficient male BALB/c-nu-nu mice (Orient bio, Korea) weighing between 18-20 g were used. The animals were bred and housed in a facility maintaining a humidity of 30-40% and a temperature of 22±1° C. on a 12-h light/dark cycle. All animal experiments were approved by the Ethics Committee for Animal Studies at Korea University. Animals were treated in accordance with the protocol approved by the Ethics Committee.
MDA-MB-231 cells (5×10^6 cells) were injected subcutaneously into 6-week-old immunodeficient BALB/c-nu-nu mice weighing between 18-20 g to establish tumor-bearing mouse models. […] The lengths of the long and short axes of tumors were measured weekly. 12 weeks after the first injection of each compound, the mice were sacrificed and tumor samples were collected for further analysis. […] Each asterisk (*) indicates a significant difference to the corresponding control.
In data set [13] the test system is mitochondrial DNA synthesis. As to the kind of experiment: Mitochondrial DNA synthesis (FIG. 5). In kind it is cell-based.
Excerpt: as §2, §3
Data set [14] concerns MDA-MB-231 cells. As to the kind of experiment: FACS measurement of Annexin-V positive apoptotic cells. Particulars: 10 μM, 0, 6, 12, 24 h, Annexin V assay, FIG. 7. In kind it is cell-based, human. As to the method:
Annexin-V positive apoptotic cells were analyzed by flow cytometry. To this end, the MDA-MB-231 cells were treated with 10 μM Ester MT-CFX for different periods of time (0, 6, 12, and 24 h) and cultured for indicated periods of time. Cells were harvested, washed twice with ice-cold PBS, placed in BD FACS tubes (10^6/mL), and cultured with 10 μg/mL annexin V in PBS containing 10% FBS at room temperature for 30 min. Subsequently, cells were washed with ice-cold PBS and annexin V fluorescence was measured in the FL-1 channel using a FACSCalibur flow cytometer (BD, USA).

Several values for one entry are separate records, joined by “and”; a condition that tells them apart may be missing. Equal entries are not always repeated. Entries after “also recorded” stand apart in the source; their conditions may differ. Where two headings read alike, the source gives them in different places.

Turning to `O=C(NCCCCCC[P+](c1ccccc1)(c1ccccc1)c1ccccc1)c1cn(C2CC2)c2cc(N3CCNCC3)c(F)cc2c1=O.[Cl-]` [Amide Mt-CFX], the “apoptotic effects on DU145” value in data set [1] was “apoptotic effects”. Besides, the “apoptotic effect on MDA-MB-231 cells” value in [2] (LDH assay) was “enhanced apoptotic effect; also recorded: apoptotic effects”. The “apoptotic effects on A549” value in [3] is on record as “apoptotic effects”. In addition, the “apoptotic effects on PC3” value in [4] is on record as “apoptotic effects”. In data set [5], the “apoptotic effects on SW620” value was “apoptotic effects”.

On to `O=C(O)c1cn(C2CC2)c2cc(N3CCNCC3)c(F)cc2c1=O` [ciprofloxacin, reference compound], for which the “apoptotic effect on MDA-MB-231 cells” value in [2] (LDH assay) is listed as “little or no apoptotic effect”.

For `Cl.O=C(OCCCCCC[P+](c1ccccc1)(c1ccccc1)c1ccccc1)c1cn(C2CC2)c2cc(N3CCNCC3)c(F)cc2c1=O.[Cl-]` [Ester Mt-CFX], the “mitochondria targeting (damage to mitochondrial genomic DNA)” value in [6] is reported as “targeted mitochondria”. Moreover, the “mitochondrial membrane potential differences” value in data set [7] was “reduction of mitochondrial membrane potential differences”. Also, in data set [8], the “toxicity to mitochondrial genes” value is listed as “selective toxicity to mitochondrial genes”. The “toxicity to nuclear genes” value in data set [9] is “no toxicity to nuclear genes”. In addition, the “apoptotic effects on DU145” value in data set [1] is listed as “apoptotic effects”. Further, the “apoptotic effect on MDA-MB-231 cells” value in data set [2] (LDH assay) is reported as “strong apoptotic effect; also recorded: apoptotic effects”. In addition, the IC50 (as a rule, the concentration that inhibits the measured activity by half) in data set [2] (MDA-MB-231, 48 h treatment, LDH assay) was ~15 µM and 20 to 30 µM. The “apoptotic activity against the cancer cells, fold higher than that of ciprofloxacin” value in data set [2] (MDA-MB-231, ratio of IC50 values) is recorded as ~55,000 fold. The “mitochondrial mutations (DNA damage lesions)” value in data set [10] is reported as “induced mitochondrial mutations”. In addition, the “production of reactive oxygen species” value in [11] is reported as “reactive oxygen species are produced”. The “apoptotic effects on A549” value in data set [3] was “apoptotic effects”. Besides, in data set [12], the “cancer volume compared to control” value is on record as “significant reduction in cancer volume”. Besides, the “mitochondrial DNA synthesis” value in [13] was “inhibition of mitochondrial DNA synthesis”. For the same compound, in [14], the apoptosis over time entry is “occurrence of apoptosis over time”. For the same compound, in data set [4], the “apoptotic effects on PC3” value was “apoptotic effects”. Also, the “apoptotic effects on SW620” value in data set [5] is listed as “apoptotic effects”.

Take `COc1cccc2c1C(=O)c1c(O)c3c(c(O)c1C2=O)C[C@@](O)(C(=O)CO)C[C@@H]3O[C@H]1C[C@H](N)[C@H](O)[C@H](C)O1` [doxorubicin, reference compound]: the “toxicity to nuclear genes” value in data set [8] is reported as “strong toxicity to nuclear genes”.
